Results as given in patent US6753337B2, “Alkynyl containing hydroxamic acid compounds as matrix metalloproteinase/tace inhibitors” (Wyeth Holdings Corporation, priority 1999, dated 2004).
Counter-ions that a name gives are not always drawn.

How the values were obtained:
[1] = target: TNF-α converting enzyme (TACE) (Homo sapiens, UniProt P78536); assay: Test procedure for measuring TACE inhibition (fluorescent peptidyl substrate); format: biochemical
How it was run: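 TACE (1 μg/mL final) preincubated 10 min at room temperature with 1 μM compound in 10 mM Tris pH 7.4, 10% glycerol, DMSO <1%. Treated rates tested against control by Dunnett's test (p<0.05).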

MMP-13 = MMP-13 (Homo sapiens, UniProt P45452); assay: MMP-13 inhibition (thiopeptide or fluorescent peptide substrate); format: biochemical; details: read-out: MMP13 IC50
How it was run: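 Human recombinant MMP-1, MMP-9 or MMP-13 was run either with a thiopeptide substrate plus DTNB (1 mM working dilution) in 50 mM HEPES pH 7.5, 5 mM CaCl2 (colorimetric), or with a quenched fluorescent peptide in HCBC buffer pH 7.0. Reactions started with substrate; the rate slope was compared with control by Dunnett's test.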

Sequence of TNF-α converting enzyme (TACE) (P78536 215-824): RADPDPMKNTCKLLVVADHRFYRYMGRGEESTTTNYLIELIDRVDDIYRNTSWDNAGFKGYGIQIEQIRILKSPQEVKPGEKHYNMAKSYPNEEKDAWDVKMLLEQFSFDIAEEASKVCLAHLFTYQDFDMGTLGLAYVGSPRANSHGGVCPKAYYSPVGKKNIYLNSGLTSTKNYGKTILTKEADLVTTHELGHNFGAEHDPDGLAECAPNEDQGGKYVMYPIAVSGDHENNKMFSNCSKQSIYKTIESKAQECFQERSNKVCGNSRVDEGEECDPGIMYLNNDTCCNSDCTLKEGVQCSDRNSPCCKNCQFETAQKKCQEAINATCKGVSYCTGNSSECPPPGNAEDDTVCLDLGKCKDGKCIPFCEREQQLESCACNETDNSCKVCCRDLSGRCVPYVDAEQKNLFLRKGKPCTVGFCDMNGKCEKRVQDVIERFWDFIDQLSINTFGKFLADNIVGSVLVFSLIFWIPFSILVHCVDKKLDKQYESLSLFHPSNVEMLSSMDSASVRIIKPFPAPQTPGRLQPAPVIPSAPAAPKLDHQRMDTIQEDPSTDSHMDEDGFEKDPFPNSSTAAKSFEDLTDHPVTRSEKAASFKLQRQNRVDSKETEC

SMILES | IC50 [1] [nM] | IC50 (MMP-13) [nM]
CC#CCOc1ccc(S(=O)(=O)CC2(C(=O)NO)CCN(C(=O)C3(C)COC(C)(C)OC3)CC2)cc1 [Example 42, 4-({[4-(2-Butynyloxy)phenyl]sulfonyl}methyl)-N-hydroxy-1-[(2,2,5-trimethyl-1,3-dioxan-5-yl)carbonyl]-4-piperidinecarboxamide] | 12 | 1630
CC#CCOc1ccc(S(=O)(=O)CC2(C(=O)NO)CCN(C(=O)C(C)(CO)CO)CC2)cc1 [Example 43, 4-({[4-(2-Butynyloxy)phenyl]sulfonyl}methyl)-N-hydroxy-1-[3-hydroxy-2-(hydroxymethyl)-2-methylpropanoyl]-4-piperidinecarboxamide] | 13 | 1640
CC#CCOc1ccc(S(=O)(=O)CC2(C(=O)NO)CCN(C(=N)N)CC2)cc1 [Example 44] | 56 | 2380
CC#CCOc1ccc(S(=O)(=O)CC2(C(=O)NO)CCN(CC#CCO)CC2)cc1 [Example 45] | 25 | 423
CC#CCOc1ccc(S(=O)(=O)C2(C(=O)NO)CCN(C(C)=O)CC2)cc1 [Example 64, 1-Acetyl-4-(4-but-2-ynyloxybenzenesulfonyl)piperidine-4-carboxylic acid hydroxamide] | 47 | 136
CC#CCOc1ccc(S(=O)(=O)C2(C(=O)NO)CCN(C(=O)c3ccccc3)CC2)cc1 [Example 65, 1-Benzoyl-4-(4-but-2-ynyloxybenzenesulfonyl)piperidine-4-carboxylic acid hydroxamide] | 73 | 105
CC#CCOc1ccc(S(=O)(=O)C2(C(=O)NO)CCN(C(=O)c3ccc(OC)cc3)CC2)cc1 [Example 66, 1-(4-Methoxybenzoyl)-4-(4-but-2-ynyloxybenzenesulfonyl)piperidine-4-carboxylic acid hydroxamide] | 106 | 81
CC#CCOc1ccc(S(=O)(=O)C2(C(=O)NO)CCN(C(=O)N3CCCC3)CC2)cc1 [Example 67, 4-(4-But-2-ynyloxybenzenesulfonyl)-N-hydroxy-1-(pyrrolidine-1-carbonyl)-4-piperidinecarboxamide] | 72 | 345
CC#CCOc1ccc(S(=O)(=O)C2(C(=O)NO)CCN(C(=O)OCC)CC2)cc1 [Example 68, Ethyl 4-(4-but-2-ynyloxybenzenesulfonyl)-4-[(hydroxyamino)-carbonyl]-1-piperidinecarboxylate] | 77 | 503
CC#CCOc1ccc(S(=O)(=O)C2(C(=O)NO)CCN(S(=O)(=O)C(F)(F)F)CC2)cc1 [Example 69, 4-(4-But-2-ynyloxybenzenesulfonyl)-N-hydroxy-1-[(trifluoromethyl)-sulfonyl]-4-piperidinecarboxamide] | 115 | 499
CC#CCOc1ccc(S(=O)(=O)C2(C(=O)NO)CCN(C(=O)c3cccnc3)CC2)cc1 [Example 70, 4-(4-But-2-ynyloxybenzenesulfonyl)-N-hydroxy-1-(3-pyridinylcarbonyl)-4-piperidinecarboxamide] | 87 | 113
CC#CCOc1ccc(S(=O)(=O)C2(C(=O)NO)CCN(C(=O)c3cccs3)CC2)cc1 [Example 71, 4-(4-but-2-ynyloxybenzenesulfonyl)-N-hydroxy-1-(2-thienylcarbonyl)-4-piperidinecarboxamide] | 113 | 183
CC#CCOc1ccc(S(=O)(=O)C2(C(=O)NO)CCN(S(=O)(=O)c3ccc(OC)cc3)CC2)cc1 [Example 72, 4-(4-but-2-ynyloxybenzenesulfonyl)-N-hydroxy-1-[(4-methoxyphenyl)-sulfonyl]-4-piperidinecarboxamide] | 221 | 369
CC#CCOc1ccc(S(=O)(=O)C2(C(=O)NO)CCN(C(=O)C(C)(CO)CO)CC2)cc1 [Example 74, 4-(4-But-2-ynyloxybenzenesulfonyl)-N-hydroxy-1-[3-hydroxy-2-(hydroxymethyl)-2-methylpropanoyl]-4-piperidinecarboxamide] | 132 | 287
CC#CCOc1ccc(S(=O)(=O)C2(C(=O)NO)CCN(C(=O)OC(C)(C)C)CC2)cc1 [Example 75, Tert-butyl 4-{[4-(2-butynyloxy)phenyl]sulfonyl}-4-[(hydroxyamino)carbonyl-]-1-piperidinecarboxalate] | 134 | 284
CC#CCOc1ccc(S(=O)(=O)C2(C(=O)NO)CCNCC2)cc1 [Example 76, 4-{[4-(2-butynyloxy)phenyl]sulfonyl}-N-hydroxy-4-piperidinecarboxamide hydrochloride] | 201 | 4020
CC#CCOc1ccc(S(=O)(=O)C2(C(=O)NO)CCN(Cc3ccc(C(=O)OC)cc3)CC2)cc1 [Example 77, hydrochloride] | 114 | 349
CC#CCOc1ccc(S(=O)(=O)C2(C(=O)NO)CCN(Cc3ccc(C(=O)O)cc3)CC2)cc1 [Example 78, 4-({4-{[4-(2-butynyloxy)phenyl]sulfonyl}-4-[(hydroxyamino)-carbonyl]-1-piperidinyl}methyl)benzoic acid hydrochloride] | 64.5 | 73.7
CC#CCOc1ccc(S(=O)(=O)C2(C(=O)NO)CCN(Cc3ccc(C(N)=O)cc3)CC2)cc1 [Example 79, 1-[4-(Aminocarbonyl)benzyl]-4-{[4-(2-butynyloxy)phenyl]sulfonyl}-N-hydroxy-4-piperidinecarboxamide hydrochloride] | 70 | 50.6
CC#CCOc1ccc([S+]([O-])C2(C(=O)NO)CCN(C(=O)OC(C)(C)C)CC2)cc1 (centres unmarked) [Example 80, tert-butyl 4-{[4-(but-2-ynyloxy)phenyl]sulfinyl}-4-[(hydroxyamino)carbonyl]piperidine-1-carboxalate] | 90 | 40
CC#CCOc1ccc([S+]([O-])C2(C(=O)NO)CCNCC2)cc1 (centres unmarked) [Example 81, 4-(4-(But-2-ynyloxy-benzenesulfinyl)-piperidine-4-carboxylic acid hydroxamide hydrochloride] | 277 | 593
CC#CCOc1ccc([S+]([O-])C2(C(=O)NO)CCN(Cc3ccc(Br)cc3)CC2)cc1 (centres unmarked) [Example 82, 1-(4-Bromo-benzyl)-4-(4-But-2-ynyloxy-benzenesulfinyl)-piperidine-4-carboxylic acid hydroxamide hydrochloride] | 135 | 62
